From patent US4273704A, “N-Adamantane-substituted tetrapeptide amides” (G. D. Searle & Co., priority 1979, dated 1981)

System: phenyl-p-benzoquinone-induced writhing
Assay: mouse phenyl-p-benzoquinone-induced writhing test (analgesic activity)
Assay type: in vivo
Details: s.c.; 60 minutes; male CD-1 mice; dose which decreased writhing by ≥50% of control mean in 50% of the mice
Procedure: This test is a modification of the procedure described by L. C. Hendershot and J. Forsaith, in J. PHARMACOL. EXP. THER., 125:237(1959).
Details of the test are as follows: Groups of 10 male CD-1 mice (Charles River) weighing 18-25 g. are pretreated subcutaneously (s.c.) or intragastrically (i.g.) with the vehicle control or the compound of interest in a volume of 10 ml/kg. Phenyl-p-benzoquinone (PBQ), 2.5 mg/kg is administered intraperitoneally (i.p.) 30 or 60 minutes later as a 0.025% solution in 5% ethanol. Starting 5 minutes after the PBQ challenge, each mouse is observed for a 10 minute period during which the number of writhes are counted. A "writhe" consists of a combination or sequence of arching the back, pelvic rotation, and hind limb extension. Significant analgesia is assumed when an animal writhing frequency is ≤50% of the daily control group mean. Estimates of the ED50 defined as the dose which decreased writhing by ≥50% of the control group mean in 50% of the mice are determined using the method of J. T. Litchfield and F. Wilcoxon, J. PHARMCOL. EXP. THER., 96:99(1949).

Question: For `CN1CC[C@]23c4c5ccc(O)c4O[C@H]2[C@@H](O)C=C[C@H]3[C@H]1C5` [morphine], which “ED50 (95% confidence limits)” value is on record?
Answer: 0.1 mpk
